Converted amounts (≈) assume the structure as drawn.
System: not listed separately
Assay: Kinetic solubility in phosphate-buffered saline, pH 7.4
Assay type: physicochemical
Details: phosphate-buffered saline, 25 °C, pH 7.4, aqueous buffer, kinetic from dmso stock, Table S1; incubation 1; read-out: PBS solubility, pH 7.4, Incubation 1
Description: Analysis of Aqueous Solubility […]
compound (Ondansetron) were assessed for kinetic solubility in phosphate-buffered saline, pH […]
Phosphate buffered saline, pH 7.4 (Sigma-Aldrich, USA; Cat #P3813) […]
MultiScreen HTS 96 Well Filter Plates (Millipore, Ireland; Cat # MSGVS2210) […]
Matrix Multichannel Electronic Pipette 2-125 µL, 5-250 µL, 15-1250 µL (Thermo Scientific, […]
Vacuum pump (Millipore, USA; Model # XX5500000)
The measurements were performed using SpectraMax Plus reader in UV-Vis mode. Acquisition and analysis of the data were performed using SoftMax Pro v.5.4 (Molecular Devices) and Excel […]
Kinetic solubility assay was performed according to the Enamine’s aqueous solubility SOP.
Briefly, using a 20 mM stock solution of the compound in 100% DMSO dilutions were prepared to a theoretical concentration of 400 μM in duplicates in phosphate-buffered saline pH 7.4 […]
for two hours and then filtered through HTS filter plates using a vacuum manifold. The filtrates of test compounds were diluted 2-fold with acetonitrile with 2% DMSO before measuring.
In parallel, compound dilutions in acetonitrile/PBS (1:1) were prepared to theoretical […]
DMSO to generate calibration curves. Ondansetron was used as reference compound to control proper assay performance. 200 μl of each sample was transferred to 96-well plate and measured in 200-550 nm range with 5 nm step.
The concentrations of compounds in PBS filtrate are calculated using a dedicated Microsoft Excel calculation script. Proper absorbance wavelengths for calculations are selected for each compound manually based on absorbance maximums (absolute absorbance unit values for the minimum and maximum concentration points within 0 – 3 OD range). Each of the final datasets is additionally visually evaluated by the operator and goodness of fit (R2) is calculated for each calibration curve. The effective range of this assay is approximately 2-400 μM and the […]
`O=C(NC1CCN(CCCCC2(C(=O)NCC(F)(F)F)c3ccccc3-c3ccccc32)CC1)[C@@H]1[C@H]2C[C@]1(c1ccc(C(F)(F)F)cc1)CO2` (relative stereo) [Compound 35] showed a solubility at 2 h of 2 µM (≈ 1.4 µg/mL).

Same assay, conditions: phosphate-buffered saline, 25 °C, pH 7.4, aqueous buffer, kinetic from dmso stock, Table S1; incubation 2; read-out: PBS solubility, pH 7.4, Incubation 2
`O=C(NC1CCN(CCCCC2(C(=O)NCC(F)(F)F)c3ccccc3-c3ccccc32)CC1)[C@@H]1[C@H]2C[C@]1(c1ccc(C(F)(F)F)cc1)CO2` (relative stereo) [Compound 35] showed a solubility at 2 h of 4 µM (≈ 2.8 µg/mL).

Same assay, conditions: phosphate-buffered saline, 25 °C, pH 7.4, aqueous buffer, kinetic from dmso stock, Table S1; mean of 2 incubations; 25 °C, 2 h, 2% DMSO; effective range approx. 2-400 μM; read-out: PBS solubility, pH 7.4, Mean
For `O=C(NC1CCN(CCCCC2(C(=O)NCC(F)(F)F)c3ccccc3-c3ccccc32)CC1)[C@@H]1[C@H]2C[C@]1(c1ccc(C(F)(F)F)cc1)CO2` (relative stereo) [Compound 35], the solubility at 2 h was 3 µM (≈ 2.1 µg/mL).

System: human liver microsomes
Assay: Metabolic stability in human liver microsomes
Assay type: in vitro ADME
Details: human liver microsomes
Description: (§1) The data acquisition and system control was performed using Analyst 1.6.3 software from AB Sciex. Methods Microsomal incubations were carried out in 96-well plates in 5 aliquots of 30 μL each (one for each time point). […] In the control reactions the NADPH-cofactor system was substituted with phosphate buffer. […] Each reaction was performed in duplicates. Five time points over 40 minutes were analyzed. The reactions were stopped by adding 4 volumes of methanol containing internal standard to incubation aliquots, followed by protein sedimentation by centrifuging at 5500 rpm for 4 minutes. […]. Supernatants were analyzed using the HPLC system coupled with tandem mass spectrometer. […] In some cases, the last time point is excluded from the calculations to ensure acceptable logarithmic linearity of decay.
Work on `O=C(NC1CCN(CCCCC2(C(=O)NCC(F)(F)F)c3ccccc3-c3ccccc32)CC1)[C@@H]1[C@H]2C[C@]1(c1ccc(C(F)(F)F)cc1)CO2` (relative stereo) [Compound 35] yielded a CIint, intrinsic clearance of 87 µL/min/mg.

System: not listed separately
Assay: Metabolic stability in human liver microsomes
Assay type: in vitro ADME
Details: both sexes, human, liver microsomes, pH 7.4, human liver microsomes, 2 μM, 37 °C, with NADPH; 7 min
Description: as §1
`O=C(NC1CCN(CCCCC2(C(=O)NCC(F)(F)F)c3ccccc3-c3ccccc32)CC1)[C@@H]1[C@H]2C[C@]1(c1ccc(C(F)(F)F)cc1)CO2` (relative stereo) [Compound 35] gave a remaining at […], 2 µM of 102%.

Same assay, conditions: both sexes, human, liver microsomes, pH 7.4, human liver microsomes, 2 μM, 37 °C, with NADPH; 15 min
With `O=C(NC1CCN(CCCCC2(C(=O)NCC(F)(F)F)c3ccccc3-c3ccccc32)CC1)[C@@H]1[C@H]2C[C@]1(c1ccc(C(F)(F)F)cc1)CO2` (relative stereo) [Compound 35] the remaining at […], 2 µM was 77%.

Same assay, conditions: both sexes, human, liver microsomes, pH 7.4, human liver microsomes, 2 μM, 37 °C, with NADPH; 25 min; read-out: % Remaining, Mean of 2
Work on `O=C(NC1CCN(CCCCC2(C(=O)NCC(F)(F)F)c3ccccc3-c3ccccc32)CC1)[C@@H]1[C@H]2C[C@]1(c1ccc(C(F)(F)F)cc1)CO2` (relative stereo) [Compound 35] yielded a remaining at 25 min, 2 µM of 36%.

Same assay, conditions: both sexes, human, liver microsomes, pH 7.4, human liver microsomes, 2 μM, 37 °C, with NADPH; 40 min; read-out: % Remaining, Mean of 2
`O=C(NC1CCN(CCCCC2(C(=O)NCC(F)(F)F)c3ccccc3-c3ccccc32)CC1)[C@@H]1[C@H]2C[C@]1(c1ccc(C(F)(F)F)cc1)CO2` (relative stereo) [Compound 35] showed a remaining at 40 min, 2 µM of 29%.

Same assay, conditions: both sexes, human, liver microsomes, pH 7.4, human liver microsomes, 0.42 mg protein per ml; Table S3; * approximate due to high stability; read-out: Clint
With `O=C(NC1CCN(CCCCC2(C(=O)NCC(F)(F)F)c3ccccc3-c3ccccc32)CC1)[C@@H]1[C@H]2C[C@]1(c1ccc(C(F)(F)F)cc1)CO2` (relative stereo) [Compound 35] the microsomal CLint at 2 µM was 87 µL/min/mg.

Same assay, conditions: both sexes, human, liver microsomes, pH 7.4, human liver microsomes; * approximate due to high stability; read-out: t1/2
`O=C(NC1CCN(CCCCC2(C(=O)NCC(F)(F)F)c3ccccc3-c3ccccc32)CC1)[C@@H]1[C@H]2C[C@]1(c1ccc(C(F)(F)F)cc1)CO2` (relative stereo) [Compound 35] gave a half-life at 2 µM of 19.2 min.

Same assay, conditions: both sexes, pH 7.4; human liver microsomes, no NADPH cofactor; 40 min; ** instability partially or completely not determined by CYP450 activity; read-out: % Remaining without cofactor, Mean of 2
`O=C(NC1CCN(CCCCC2(C(=O)NCC(F)(F)F)c3ccccc3-c3ccccc32)CC1)[C@@H]1[C@H]2C[C@]1(c1ccc(C(F)(F)F)cc1)CO2` (relative stereo) [Compound 35] gave a remaining at 40 min, 2 µM of 84%.

Same assay, conditions: both sexes, pH 7.4; human liver microsomes; elimination constant; * approximate due to high stability; read-out: kel (converted)
`O=C(NC1CCN(CCCCC2(C(=O)NCC(F)(F)F)c3ccccc3-c3ccccc32)CC1)[C@@H]1[C@H]2C[C@]1(c1ccc(C(F)(F)F)cc1)CO2` (relative stereo) [Compound 35] gave a k el at 2 µM of 0.0006 s⁻¹.

System: not listed separately
Assay: physchem
Assay type: physicochemical
Details: Table S2; n-octanol/PBS pH 7.4; incubation 1
Description: Determination of Distribution Coefficient (LogD, pH 7.4) […]
n-octanol – phosphate buffered saline (PBS), pH 7.4. Distribution coefficient (or LogD) is a […]
Phosphate buffered saline, tablet (Sigma-Aldrich, USA; Cat # P4417)
Acetic acid (Enamine, Ukraine.)
DMSO stock solutions of the test compounds 10mM
Gradient HPLC system (Shimadzu, Japan)
MTR22 Multi Mix Rotator (UNICO, USA)
Laboratory Centrifuge, Sigma 4-15C, Qiagen (SIGMA GmbH, Germany) […]
allowed to mix in a rotator for 1 h at 30 rpm. Phase separation was assured by centrifugation for […]
dilution. The samples (both phases) were analyzed using a HPLC system coupled with a tandem mass spectrometer. Mebendazole was used as a reference compound. […]
where: SO – peak area of the analyte in octanol phase
S P – peak area of the analyte in PBS buffer do – dilution coefficient for octanol phase dp – dilution coefficient for aqueous phase
For `O=C(NC1CCN(CCCCC2(C(=O)NCC(F)(F)F)c3ccccc3-c3ccccc32)CC1)[C@@H]1[C@H]2C[C@]1(c1ccc(C(F)(F)F)cc1)CO2` (relative stereo) [Compound 35], the “D (partition ratio), incubation 1” value was 1.46E+05.

Same assay, conditions: Table S2; n-octanol/PBS pH 7.4; incubation 2
With `O=C(NC1CCN(CCCCC2(C(=O)NCC(F)(F)F)c3ccccc3-c3ccccc32)CC1)[C@@H]1[C@H]2C[C@]1(c1ccc(C(F)(F)F)cc1)CO2` (relative stereo) [Compound 35] the “D (partition ratio), incubation 2” value was 1.62E+05.

Same assay, conditions: Table S2; n-octanol/PBS pH 7.4; incubation 3
With `O=C(NC1CCN(CCCCC2(C(=O)NCC(F)(F)F)c3ccccc3-c3ccccc32)CC1)[C@@H]1[C@H]2C[C@]1(c1ccc(C(F)(F)F)cc1)CO2` (relative stereo) [Compound 35] the “D (partition ratio), incubation 3” value was 8.88E+04.

Same assay, conditions: pH 7.4, LogD, pH 7.4 (mean)
Work on `O=C(NC1CCN(CCCCC2(C(=O)NCC(F)(F)F)c3ccccc3-c3ccccc32)CC1)[C@@H]1[C@H]2C[C@]1(c1ccc(C(F)(F)F)cc1)CO2` (relative stereo) [Compound 35] yielded a logD at 1 h greater than 4.5.

Same assay, conditions: pH 7.4, LogD, pH 7.4, incubation 1
`O=C(NC1CCN(CCCCC2(C(=O)NCC(F)(F)F)c3ccccc3-c3ccccc32)CC1)[C@@H]1[C@H]2C[C@]1(c1ccc(C(F)(F)F)cc1)CO2` (relative stereo) [Compound 35] gave a logD at 1 h greater than 4.5.

Same assay, conditions: pH 7.4, LogD, pH 7.4, incubation 2
`O=C(NC1CCN(CCCCC2(C(=O)NCC(F)(F)F)c3ccccc3-c3ccccc32)CC1)[C@@H]1[C@H]2C[C@]1(c1ccc(C(F)(F)F)cc1)CO2` (relative stereo) [Compound 35] showed a logD at 1 h greater than 4.5.

Same assay, conditions: pH 7.4, LogD, pH 7.4, incubation 3
In the case of `O=C(NC1CCN(CCCCC2(C(=O)NCC(F)(F)F)c3ccccc3-c3ccccc32)CC1)[C@@H]1[C@H]2C[C@]1(c1ccc(C(F)(F)F)cc1)CO2` (relative stereo) [Compound 35], the logD at 1 h is reported as greater than 4.5.

Same assay, conditions: pH 7.4, logD (7.4)
Compound `O=C(NC1CCN(CCCCC2(C(=O)NCC(F)(F)F)c3ccccc3-c3ccccc32)CC1)[C@@H]1[C@H]2C[C@]1(c1ccc(C(F)(F)F)cc1)CO2` (relative stereo) [Compound 35] has a logD at 1 h greater than 4.5.

Reference: paper PMC10396955, “2-Oxabicyclo[2.1.1]hexanes as saturated bioisosteres of the ortho-substituted phenyl ring” (Nature Chemistry, 2023)
